26 compounds from US5663148A, “Anaphylatoxin receptor ligands containing lipophilic residues” (Abbott Laboratories, priority 1994, dated 1997) can be followed below.

A word on the Ki: it is a measure of affinity in units of concentration, obtained from inhibition or displacement.

The assay deals with T1, C5a receptor (Homo sapiens, UniProt P21730).
T1 construct: from tissue; host or cells: polymorphonuclear leukocyte (PMNL) membrane fragments
T1 sequence (P21730 1-350): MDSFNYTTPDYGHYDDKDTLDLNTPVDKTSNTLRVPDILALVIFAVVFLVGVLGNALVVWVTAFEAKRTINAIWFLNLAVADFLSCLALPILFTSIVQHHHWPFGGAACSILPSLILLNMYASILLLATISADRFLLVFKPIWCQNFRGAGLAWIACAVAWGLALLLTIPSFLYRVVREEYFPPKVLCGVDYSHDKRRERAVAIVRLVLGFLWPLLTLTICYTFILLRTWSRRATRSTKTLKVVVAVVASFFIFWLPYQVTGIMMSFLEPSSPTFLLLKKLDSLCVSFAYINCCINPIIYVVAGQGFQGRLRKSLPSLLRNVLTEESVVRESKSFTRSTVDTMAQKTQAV
As to the kind of experiment: Anaphylatoxin (C5a) receptor binding Ki determination, 125I-C5a on PMNL membrane fragments. As to conditions: read-out: Ki (In vitro C5a Receptor Binding Potency). How it is done: The membrane-bound radiolabeled C5a was separated from the free radiolabeled C5a by filtration, and the recovered gamma radioactivity was measured. […] Free and membrane-bound ligand were separated by filtration.
Consider `CC(C)C[C@H](NC(=O)CN(C)C(=O)[C@H](CC1CCCCC1)NC(=O)CCCCCCN)C(=O)NC(CCCc1ccccc1)C(=O)N[C@@H](CCCNC(=N)N)C(=O)O` (single isomer, unassigned) [Example 60], for which the inhibition constant Ki was 19 µM.

`CC(C)C[C@H](NC(=O)CN(C)C(=O)[C@H](CC1CCCCC1)NC(=O)CCCCCCN)C(=O)NC(CCCc1ccccc1)C(=O)N[C@@H](CCCNC(=N)N)C(=O)O` (single isomer, unassigned) [Example 61]: the Ki turned out to be 3.2 µM.

Regarding `CC(C)C[C@H](NC(=O)CNC(=O)C=C1CNc2ccccc21)C(=O)N[C@H](CCCc1ccccc1)C(=O)N[C@@H](CCCNC(=N)N)C(=O)O` (single isomer, unassigned) [Example 65], the Ki turned out to be 0.3 µM.

For the compound `CC(C)C[C@H](NC(=O)CNC(=O)C=C1CNc2ccccc21)C(=O)N[C@H](CCCc1ccccc1)C(=O)N[C@@H](CCCNC(=N)N)C(=O)O` (single isomer, unassigned) [Example 66], the inhibition constant Ki worked out at 0.046 µM.

Regarding `CC(C)C[C@H](NC(=O)[C@H](C)NC(=O)[C@H](CC1CCCCC1)NC(=O)[C@@H]1CCCN1C(=O)[C@@H](N)CCCCN)C(=O)NC(CCCc1ccccc1)C(=O)N[C@@H](CCCNC(=N)N)C(=O)O` (single isomer, unassigned) [Example 68], the inhibition constant (Ki) was determined as 14 µM.

With `CC(C)C[C@H](NC(=O)[C@H](C)NC(=O)[C@H](CC1CCCCC1)NC(=O)[C@@H]1CCCN1C(=O)[C@@H](N)CCCCN)C(=O)NC(CCCc1ccccc1)C(=O)N[C@@H](CCCNC(=N)N)C(=O)O` (single isomer, unassigned) [Example 69], the Ki was determined as 0.14 µM.

On to `CC(C)C[C@H](NC(=O)CNC(=O)[C@H](CC1CCCCC1)NC(=O)CCCCCN)C(=O)NC(CCCc1ccccc1)C(=O)N[C@@H](CCCNC(=N)N)C(=O)O` (single isomer, unassigned) [Example 70], for which the Ki came to 4.5 µM.

In the case of `CC(C)C[C@H](NC(=O)CNC(=O)[C@H](CC1CCCCC1)NC(=O)CCCCCN)C(=O)NC(CCCc1ccccc1)C(=O)N[C@@H](CCCNC(=N)N)C(=O)O` (single isomer, unassigned) [Example 71], the inhibition constant (Ki) was 0.15 µM.

For `CC(C)C[C@H](NC(=O)CNC(=O)[C@H](CC1CCCCC1)NC(=O)CN)C(=O)NC(CCCc1ccccc1)C(=O)N[C@@H](CCCNC(=N)N)C(=O)O` (single isomer, unassigned) [Example 72], the Ki is 4.27 µM.

Take `CC(C)C[C@H](NC(=O)CNC(=O)[C@H](CC1CCCCC1)NC(=O)CN)C(=O)NC(CCCc1ccccc1)C(=O)N[C@@H](CCCNC(=N)N)C(=O)O` (single isomer, unassigned) [Example 73]: the Ki was 1.99 µM.

Consider `CC(C)C[C@H](NC(=O)CNC(=O)[C@H](CC1CCCCC1)N(C)C(=O)CCCCCCN)C(=O)NC(CCCc1ccccc1)C(=O)N[C@@H](CCCNC(=N)N)C(=O)O` (single isomer, unassigned) [Example 75], for which the inhibition constant Ki was 17.2 µM.

As for `CC(C)C[C@H](NC(=O)CNC(=O)[C@H](CC1CCCCC1)N(C)C(=O)CCCCCCN)C(=O)NC(CCCc1ccccc1)C(=O)N[C@@H](CCCNC(=N)N)C(=O)O` (single isomer, unassigned) [Example 76], the Ki was determined as 1.5 µM.

Consider `CC(C)C[C@H](NC(=O)CNC(=O)[C@H](CC1CCCCC1)NC(=O)CCN)C(=O)NC(CCCc1ccccc1)C(=O)N[C@@H](CCCNC(=N)N)C(=O)O` (single isomer, unassigned) [Example 84], for which the inhibitory constant (Ki) came out at 3.9 µM.

For `CC(C)C[C@H](NC(=O)CNC(=O)[C@H](CC1CCCCC1)NC(=O)CCN)C(=O)NC(CCCc1ccccc1)C(=O)N[C@@H](CCCNC(=N)N)C(=O)O` (single isomer, unassigned) [Example 85], the inhibition constant (Ki) was found to be 2 µM.

As to `CC(C)C[C@H](NC(=O)[C@H](CC1CCCCC1)NC(=O)CCCCCN)C(=O)NC(CCCc1ccccc1)C(=O)N[C@@H](CCCNC(=N)N)C(=O)O` (single isomer, unassigned) [Example 86, N-(6-Aminohexanoyl)-{(25)-2-Amino-3-cyclohexylpropanoyl}-Leucyl-{(R/S)-2-Amino-5-phenylpentanoyl}-Arginyl-OH], the Ki amounted to 44.8 µM.

On to `CC(C)C[C@H](NC(=O)[C@H](CC1CCCCC1)NC(=O)CCCCCN)C(=O)NC(CCCc1ccccc1)C(=O)N[C@@H](CCCNC(=N)N)C(=O)O` (single isomer, unassigned) [Example 87], for which the Ki was determined as 5.8 µM.

Consider `N=C(N)NCCC[C@H](NC(=O)C(CCCc1ccccc1)NC(=O)CN(Cc1ccccc1)C(=O)[C@H](CCCCN)NC(=O)[C@@H](N)Cc1ccccc1)C(=O)O` (single isomer, unassigned) [Example 94, H-Phenylalanyl-Lysyl-Glycyl(N-benzyl)-{(R/S)-2-Amino-5-phenylpentanoyl}-Arginyl-OH], for which the Ki was 5.8 µM.

`N=C(N)NCCC[C@H](NC(=O)C(CCCc1ccccc1)NC(=O)CN(Cc1ccccc1)C(=O)[C@H](CCCCN)NC(=O)[C@@H](N)Cc1ccccc1)C(=O)O` (single isomer, unassigned) [Example 95, H-Phenylalanyl-Lysyl-Glycyl(N-benzyl)-{(R/S)-2-Amino-5-phenylpentanoyl}-Arginyl-OH]: the Ki was found to be 34 µM.

With `CC(C)C[C@H](NC(=O)[C@H](CCCCN)NC(=O)[C@@H](N)CC1CCCCC1)C(=O)NC(CCCc1ccccc1)C(=O)N[C@@H](CCCNC(=N)N)C(=O)O` (single isomer, unassigned) [Example 96], the Ki amounted to 33.2 µM.

As for `CC(C)C[C@H](NC(=O)[C@H](CCCCN)NC(=O)[C@@H](N)CC1CCCCC1)C(=O)NC(CCCc1ccccc1)C(=O)N[C@@H](CCCNC(=N)N)C(=O)O` (single isomer, unassigned) [Example 97], the Ki was 8.2 µM.

Consider `CC(C)C[C@@H](NC(=O)CNC(=O)[C@H](CC1CCCCC1)NC(=O)CCCCCN)C(=O)NC(CCCc1ccccc1)C(=O)N[C@@H](CCCNC(=N)N)C(=O)O` (single isomer, unassigned) [Example 99], for which the Ki is 4.8 µM.

For the compound `CC(C)C[C@@H](NC(=O)CNC(=O)[C@H](CC1CCCCC1)NC(=O)CCCCCN)C(=O)NC(CCCc1ccccc1)C(=O)N[C@@H](CCCNC(=N)N)C(=O)O` (single isomer, unassigned) [Example 100], the Ki came out at 60 µM.

Turning to `CC(C)[C@H](NC(=O)CNC(=O)[C@H](CC1CCCCC1)NC(=O)CCCCCN)C(=O)NC(CCCc1ccccc1)C(=O)N[C@@H](CCCNC(=N)N)C(=O)O` (single isomer, unassigned) [Example 101], the inhibition constant Ki turned out to be 52 µM.

In the case of `CC(C)[C@H](NC(=O)CNC(=O)[C@H](CC1CCCCC1)NC(=O)CCCCCN)C(=O)NC(CCCc1ccccc1)C(=O)N[C@@H](CCCNC(=N)N)C(=O)O` (single isomer, unassigned) [Example 102, N-(6-Aminohexanoyl)-{(2S)-2-Amino-3-cyclohexylpropanoyl}-Glycyl-Valyl-{(FFS)-2-Amino-5-phenylpentanoyl}-Arginyl-OH], the Ki came to 21.7 µM.

In the case of `CC(C)C[C@H](NC(=O)CNC(=O)C(N)CCCc1ccccc1)C(=O)N[C@H](CCCc1ccccc1)C(=O)N[C@@H](CCCNC(=N)N)C(=O)O` (single isomer, unassigned) [Example 104], the Ki stood at 2.4 µM.

Take `CC(C)C[C@H](NC(=O)CNC(=O)C(N)CCCc1ccccc1)C(=O)N[C@H](CCCc1ccccc1)C(=O)N[C@@H](CCCNC(=N)N)C(=O)O` (single isomer, unassigned) [Example 105]: the Ki was 0.33 µM.
